Assay results published in US11261179B2, “Small molecules” (University of Dundee, priority 2017, dated 2022).

Key:
[1] = biological target: pVHL19 (VCB complex: VHL with Elongin B and Elongin C) (Homo sapiens, UniProt P40337); assay: ITC titration against VCB, short VHL isoform; type: binding; settings: for binding to VCB detected by ITC: ITC against VCB; for Kd / ΔG / ΔH / α (cooperativity/avidity) / −TΔS / n (stoichiometry): ITC; for Kd / ΔG / ΔH / α (cooperativity/avidity) / −TΔS: pVHL19; for n (stoichiometry): pVHL19, 25° C.
Experimental: (§1) Titrations were performed on an ITC200 micro-calorimeter (GE Healthcare). […] The final DMSO concentration was 0.15% v/v. VBC protein experiments were carried out in a buffer containing 20 mM Bis-tris propane, 150 mM NaCl, 1 mM TCEP, 0.15% v/v DMSO, pH 7.4. The titrations consisted of 19 injections of 2 μL compounds solution (150 μM, in the syringe) at a rate of 2 s/μL at 120 s time intervals into the VCB protein solution (20 μM, in the cell). An initial injection of compound solution (0.4 μL) was made and discarded during data analysis. All experiments were performed at 25° C., whilst stirring the syringe at 600 rpm. The data were fitted to a single binding site model to obtain the stoichiometry n, the dissociation constant Kd and the enthalpy of binding ΔH using the Microcal LLC ITC200 Origin software provided by the manufacturer.

[2] = test system: HIF-1α / hydroxylated HIF-1α (Hdy-HIF-1α); assay: Western blot of HIF-1α and Hdy-HIF-1α levels in HeLa cells; type: cell-based, Human
Experimental: (§2) For single time point treatment experiments, cells were transferred in 6-well plates with 5×10^5 cells per well in 2 ml media in order to achieve 80% confluence the following day. Stock concentrations of compounds were prepared by solubilizing the powder in 100% v/v DMSO to the final desired stock concentration.
(§3) On the day of treatment, all compound samples were prepared as 100-fold concentrated compound solution using DMEM just before treatment. The experiment samples (20 μL) were added to the 6 well plate containing 2 ml of media. The final DMSO concentration was 0.1% v/v. Cells were incubated at 37° C. and 5% CO2 for the desired time before harvesting.
(§4) For time dependent treatment, cells were transferred in 6-well plates with 3×10^5 cells per well in 2 ml media. Samples were prepared as detailed above or the single time point experiments. Treatment was conducted at given time points prior to harvest.
(§5) Cells were lysed in lysis buffer (20 mM Tris pH 8, 150 mM NaCl, 1% Triton x100) and a protease inhibitor cocktail (Roche) per 10 ml buffer. For protein extracts, the dishes were placed on ice. The media was aspirated and the tissue layer washed twice with ice-cold phosphate buffer saline (PBS). Lysis buffer (120 μl) was added and the cells detached from the surface with a cell scraper. After removal of the insoluble fraction by centrifugation, the protein concentration of the supernatant was determined by Pierce™ Coomassie (Bradford) Protein Assay Kit. Protein extracts were fractionated by SDS-PAGE on 4-12% Tris-Acetate NuPage® Novex® (Life Technologies) polyacrylamide gels and transferred to a nitrocellulose membrane using wet transfer. The membrane was then blocked with 5% w/v Bovine serum albumin (BSA) in Tris-buffered saline (TBS) with 0.1% w/v Tween-20. For detecting proteins the following primary antibodies in the given concentrations were used: anti-β-Actin (Cell Signaling Technology, 4970S, 13E5) 1:2000, anti-VHL (Cell Signaling Technology, #68547) 1:1000, anti-Hif-1α (BD Biosciences, 610959, clone 54) 1:1000, anti-hydroxy-HIF-1α (Hyp564) (Cell Signaling Techonology; #3434) 1:1000, anti-PHD2 (Bethyl Laboratories; A300-322A) 1:1000, anti-PHD3 (Bethyl Laboratories; A300-327A) 1:1000, anti-CRBN (Proteintech; 11435-1-AP) 1:1000.
(§6) Following incubation with a horseradish peroxidase-conjugated secondary antibody (Cell Signaling Technology), the signal was developed using enhanced chemiluminescence (ECL) Western Blotting Detection Kit (Amersham) on Amersham Hyperfilm ECL film (Amersham).
Band quantification was performed using ImageJ software and reported as relative amount as ratio of the each protein band relative to the lane's loading control. The values obtained were then normalized to 0.1% DMSO vehicle control.

[3] = biological target: VCB complex (Homo sapiens, UniProt P40337); assay: Size exclusion chromatography of VCB complex formation; type: binding; settings: SEC; for shift of VCB peak / ternary complex formation: VCB 50 μM, compound 30 μM
Experimental: SEC experiments were carried out in a AKTA pure system (GE Healthcare) at room temperature. The oligomeric state of the VCB complex in solution was analyzed by gel filtration in a buffer containing 20 mM Bis-Tris (pH 7), 150 mM NaCl and 1 mM 1,4-dithiothreitol (DTT) using a Superdex 200 Increase 10/300 GL column (GE Healthcare) calibrated with globular proteins of known molecular weight (GE Healthcare, 28-4038-41/42). […] Sample volume for each injection was 200 μL, and the flow rate was 0.5 mL/min. Peak elution was monitored using ultraviolet absorbance at 280 nm.

[4] = biological target: T1, pVHL30 (long isoform of VHL) (Homo sapiens, UniProt P40337); assay: Western blot of VHL levels in HeLa cells; type: cell-based; settings: 1 μM, 10 h
T1 construct: endogenous in cells; host or cells: HeLa
Experimental: as §2, §3, §4
Cells were transferred in 6-well plates with 5×10^5 cells per well in 2 ml media in order to achieve 80% confluence the day after. At t=0, MLN4924 was added into the desired wells at 3 μM final concentration and 0.1% v/v of DMSO. DMSO (0.1% v/v final conc.) was added to the remaining wells in order to match identical conc. of vehicle in all wells. At t=3 h, MG 132 was added into the desired wells at 50 μM final conc. and 0.1% v/v of DMSO. DMSO (0.1% v/v final conc.) was added to the remaining wells in order to achieve the same conc. of vehicle in all the wells. […] DMSO (0.1% v/v final conc.) was added to the remaining wells in order to obtain the same conc. of vehicle in all the wells. The total final concentration of DMSO was therefore 0.3% v/v. Plates were incubated for 4 h at 37° C. and 5% CO2 before harvesting.
Cells were transferred in 6-well plates with 5×10^5 cells per well in 2 ml media in order to achieve 80% confluence the day after. […] Plates were incubated for the desired time at 37° C. and 5% CO2 before harvesting.
For this experiments, cells were transferred in 6-well plates with 5×10^5 cells per well in 2 ml media in order to achieve 80% confluence the day after. […] Plates were incubated for the desired time at 37° C. and 5% CO2 before harvesting.
as §5, §6
Band quantification was performed using ImageJ software and reported as relative amount as ratio of the each protein band relative to the lane's loading control. […]

[5] = biological target: pVHL30 (VCB complex) (Homo sapiens, UniProt P40337); assay: ITC titration against VCB, long VHL isoform; type: binding
Experimental: as §1

pVHL30 (VCB complex), sequence (P40337 whole entry, canonical isoform): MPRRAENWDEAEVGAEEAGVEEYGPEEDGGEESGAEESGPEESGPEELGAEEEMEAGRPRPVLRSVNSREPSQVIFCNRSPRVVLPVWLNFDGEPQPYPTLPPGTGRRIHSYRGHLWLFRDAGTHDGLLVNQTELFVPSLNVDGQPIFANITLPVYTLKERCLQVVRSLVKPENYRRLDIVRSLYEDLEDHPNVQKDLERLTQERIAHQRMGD
pVHL30 (VCB complex), sequence (Q15370 1-104 partner limits assumed): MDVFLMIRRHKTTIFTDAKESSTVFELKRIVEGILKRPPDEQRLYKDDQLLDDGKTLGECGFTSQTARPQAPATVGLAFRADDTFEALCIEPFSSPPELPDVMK
pVHL30 (VCB complex), sequence (Q15369 17-112 partner limits assumed): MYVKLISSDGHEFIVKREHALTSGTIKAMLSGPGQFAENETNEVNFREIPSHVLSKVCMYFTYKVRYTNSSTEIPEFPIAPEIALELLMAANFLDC
pVHL19 (VCB complex: VHL with Elongin B and Elongin C), sequence (P40337 54-213): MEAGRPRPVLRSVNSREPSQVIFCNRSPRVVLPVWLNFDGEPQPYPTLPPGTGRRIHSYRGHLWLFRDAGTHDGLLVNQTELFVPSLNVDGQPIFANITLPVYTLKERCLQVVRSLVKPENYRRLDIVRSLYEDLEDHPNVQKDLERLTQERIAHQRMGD
pVHL19 (VCB complex: VHL with Elongin B and Elongin C), sequence (Q15370 1-104 partner limits assumed): as the sequence (Q15370 1-104 partner limits assumed) above
pVHL19 (VCB complex: VHL with Elongin B and Elongin C), sequence (Q15369 17-112 partner limits assumed): as the sequence (Q15369 17-112 partner limits assumed) above
VCB complex, sequence (P40337 54-213 limits assumed): as the sequence (P40337 54-213) above
VCB complex, sequence (Q15370 1-104 partner limits assumed): as the sequence (Q15370 1-104 partner limits assumed) above
VCB complex, sequence (Q15369 17-112 partner limits assumed): as the sequence (Q15369 17-112 partner limits assumed) above
T1 sequence (P40337 whole entry, canonical isoform): as the sequence (P40337 whole entry, canonical isoform) above

| Structure (SMILES) | Kd [1] | ΔG [1] | ΔH [1] | α (cooperativity/avidity) [1] | −TΔS [1] | n (stoichiometry) [1] | also measured |
| --- | --- | --- | --- | --- | --- | --- | --- |
| Cc1ncsc1-c1ccc(CNC(=O)[C@@H]2C[C@@H](O)CN2C(=O)[C@@H](NC(=O)C2(C#N)CC2)C(C)(C)C)c(OCCOCCOCCOCCOCCOc2cc(-c3scnc3C)ccc2CNC(=O)[C@@H]2C[C@@H](O)CN2C(=O)[C@@H](NC(=O)C2(C#N)CC2)C(C)(C)C)c1 [CMP108, (2S,2′S,4R,4′R)—N,N′-((((3,6,9,12-tetraoxatetradecane-1,14-diyl)bis(oxy))bis(4-(4-methylthiazol-5-yl)-2,1-phenylene))bis(methylene))bis(1-((S)-2-(1-cyanocyclopropane-1-carboxamido)-3,3-dimethylbutanoyl)-4-hydroxypyrrolidine-2-carboxamide)] | – | – | – | – | – | – | binding to VCB detected by ITC [1]: data could not be fitted to a binding curve |
| CC(=O)N[C@H](C(=O)N1C[C@H](O)C[C@H]1C(=O)NCc1ccc(-c2scnc2C)cc1)C(C)(C)C [VH032, reference compound] | – | – | – | – | – | – | protein levels of Hdy-HIF-1α ([2]; HeLa, 1 μM, 10 h): completely ineffective; concentration at which active in cells ([2]; cells): ~100 µM |
| CC(=O)N[C@H](C(=O)N1C[C@H](O)C[C@H]1C(=O)NCc1ccc(-c2scnc2C)cc1OCCOCCOCCOCCOCCOc1cc(-c2scnc2C)ccc1CNC(=O)[C@@H]1C[C@@H](O)CN1C(=O)[C@@H](NC(C)=O)C(C)(C)C)C(C)(C)C [CMP106, (2S,2′S,4R,4′R)—N,N′-((((3,6,9,12-tetraoxatetradecane-1,14-diyl)bis(oxy))bis(4-(4-methylthiazol-5-yl)-2,1-phenylene))bis(methylene))bis(1-((S)-2-acetamido-3,3-dimethylbutanoyl)-4-hydroxypyrrolidine-2-carboxamide)] | 111 ± 8 nM | -9.5 kcal/mol | -12.6 ± 0.1 kcal/mol | 1.7 | 3.1 kcal/mol | 0.535 ± 0.004 | – |
| CC(=O)N[C@H](C(=O)N1C[C@H](O)C[C@H]1C(=O)NCc1ccc(-c2scnc2C)cc1OCCOCCOCCOCCOCCOCC(=O)N[C@H](C(=O)N1C[C@H](O)C[C@H]1C(=O)NCc1ccc(-c2scnc2C)cc1)C(C)(C)C)C(C)(C)C [CMP112, (2S,4R)-1-((S)-2-acetamido-3,3-dimethylbutanoyl)-4-hydroxy-N-(2-(((S)-19-((2S,4R)-4-hydroxy-2-((4-(4-methylthiazol-5-yl)benzyl)carbamoyl)pyrrolidine-1-carbonyl)-20,20-dimethyl-17-oxo-3,6,9,12,15-pentaoxa-18-azahenicosyl)oxy)-4-(4-methylthiazol-5-yl)benzyl)pyrrolidine-2-carboxamide] | 235 ± 22 nM | -9.1 kcal/mol | -14.8 ± 0.2 kcal/mol | 0.8 | 5.8 kcal/mol | 0.498 ± 0.006 | – |
| Cc1ncsc1-c1ccc(CNC(=O)[C@H]2C[C@@H](O)CN2C(=O)[C@H](NC(=O)COCCOCCOCCOCCOCC(=O)N[C@H](C(=O)N2C[C@H](O)C[C@H]2C(=O)NCc2ccc(-c3scnc3C)cc2)C(C)(C)C)C(C)(C)C)cc1 [CMP99, N^1—((R)-1-((2R,4R)-4-hydroxy-2-((4-(4-methylthiazol-5-yl)benzyl)carbamoyl)pyrrolidin-1-yl)-3,3-dimethyl-1-oxobutan-2-yl)-N^17—((S)-1-((2S,4R)-4-hydroxy-2-((4-(4-methylthiazol-5-yl)benzyl)carbamoyl)pyrrolidin-1-yl)-3,3-dimethyl-1-oxobutan-2-yl)-3,6,9,12,15-pentaoxaheptadecanediamide] | 146 ± 2 nM | -9.33 ± 0.06 kcal/mol | -6.23 ± 0.05 kcal/mol | – | -3.1 ± 0.7 kcal/mol | 0.964 ± 0.005 | elution volume of small peak [3]: 13.5 mL; shift of VCB peak / ternary complex formation [3]: no shift; depletion/degradation of VHL (pVHL30) [4]: unable to induce degradation of VHL; Kd [5]: 106 ± 10 nM; n (stoichiometry) [5]: 1.050 ± 0.004; ΔG [5]: -9.51 ± 0.05 kcal/mol; ΔH [5]: -5.19 ± 0.03 kcal/mol; −TΔS [5]: -4.3 ± 0.1 kcal/mol |
| Cc1ncsc1-c1ccc(CNC(=O)[C@@H]2C[C@H](O)CN2C(=O)[C@@H](NC(=O)COCCOCCOCCOCCOCCOCC(=O)N[C@H](C(=O)N2C[C@@H](O)C[C@H]2C(=O)NCc2ccc(-c3scnc3C)cc2)C(C)(C)C)C(C)(C)C)cc1 [CMP98, N^1,N^20-bis((S)-1-((2S,4S)-4-hydroxy-2-((4-(4-methylthiazol-5-yl)benzyl)carbamoyl)pyrrolidin-1-yl)-3,3-dimethyl-1-oxobutan-2-yl)-3,6,9,12,15,18-hexaoxaicosanediamide] | – | – | – | – | – | – | shift of VCB peak / ternary complex formation [3]: no shift; depletion/degradation of VHL (pVHL30) [4]: unable to induce degradation of VHL; binding to VCB detected by ITC [1]: binding was not detected |
| Cc1ncsc1-c1ccc(CNC(=O)[C@@H]2C[C@@H](O)CN2C(=O)[C@@H](NC(=O)COCCOCCOCCOCCOCCOc2cc(-c3scnc3C)ccc2CNC(=O)[C@@H]2C[C@@H](O)CN2C(=O)[C@@H](NC(=O)C2(C#N)CC2)C(C)(C)C)C(C)(C)C)cc1 [CMP113, (2S,4R)-1-((S)-2-(tert-butyl)-20-(2-(((2S,4R)-1-((S)-2-(1-cyanocyclopropane-1-carboxamido)-3,3-dimethylbutanoyl)-4-hydroxypyrrolidine-2-carboxamido)methyl)-5-(4-methylthiazol-5-yl)phenoxy)-4-oxo-6,9,12,15,18-pentaoxa-3-azaicosanoyl)-4-hydroxy-N-(4-(4-methylthiazol-5-yl)benzyl)pyrrolidine-2-carboxamide] | 117 ± 25 nM | -9.5 kcal/mol | -6.4 ± 0.2 kcal/mol | 1.7 | -3.1 kcal/mol | 0.934 ± 0.005 | – |
